Laboratory results: patent US20240246963A1, “BIFUNCTIONAL COMPOUNDS AND PHARMACEUTICAL USES THEREOF” (RISEN (SUZHOU) PHARMA TECH CO., LTD., priority 2022, published 2024)

Key:
[1] = system: GP2D cells (G12D); assay: Cell proliferation study (Cell Titer Glo, 72 hours), GP2D; type: cell-based
Method: (§1) Aspc-1(Cobioer, CBP60546), GP2D(Cobioer, CBP60683), Mia paca2 (Cobioer, CBP60136), NCI-H358 (Cobioer, CBP60544), H727 (Cobioer, CBP60182), MKN-1 (Cobioer, CBP60486), and PSN1 (Cobioer, CBP61215) cells in exponential growth phase were seeded into a 96-well plate (Greiner, 655090) at density of 3E3/well. Cells were cultured overnight at 37° C. with 5% CO2. On the next day, cells were treated with compound at various concentrations for 72 hours in 37° C., 5% CO2 incubator (final DMSO concentration was 0.1%). After treatment, 100 μL Cell Tier Glo (Promega, G7573) were added to every well on the cell plate and incubated at room temperature (RT) for 10 minutes. Cell growth status was measured with Cell Tier Glo (Promega, G7573) following manufacturer's directions. Inhibition level was calculated according to the following formula: […]
(§2) where the “Maximum Signal” are signal of wells containing DMSO without compound; the “Minimum Signal” are signal of wells recorded at Day 0 prior to commencement of the experiment; and the “Test compound signal” are signal of wells containing compound at established concentrations.
(§3) The inhibition curve was obtained with GraphPad 7.0 software using four-parameter equation.

[2] = biological target: T1, RAS G12D protein (Homo sapiens, UniProt P01116, G12D); assay: Protein degradation study (western blot) in Aspc-1 cells; type: cell-based; details: for DC50: half-maximum degradation concentration on G12D in Aspc-1 cells; for percent protein degradation at 0.005 µM: 0.005 μM compound; for percent protein degradation at 0.05 µM: 0.05 μM compound; for Dmax: ASPC1
T1 construct: host or cells: Aspc-1 (AsPC-1) cells
T1 sequence (P01116 1-188 isoform P01116-2 G12D): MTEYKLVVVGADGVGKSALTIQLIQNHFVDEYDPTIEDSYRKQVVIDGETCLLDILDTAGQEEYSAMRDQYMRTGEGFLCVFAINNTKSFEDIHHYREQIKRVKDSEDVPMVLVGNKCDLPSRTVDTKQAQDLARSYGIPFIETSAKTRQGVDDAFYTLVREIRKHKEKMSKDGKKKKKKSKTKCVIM
Method: Aspc-1 (Cobioer, CBP60546) cells in exponential growth phase were inoculated on a 6-well cell culture plate (Corning, 3516) at density of 1E6/well; and cells in the plate were cultured in a 37° C. incubator containing 5%-carbon dioxide. The next day, test compounds were dissolved in DMSO (Sigma, RNBF5902) for the preparation of a 10-mM concentration stock solution. The stock solution was diluted with complete medium (RPMI-1640 supplemented with 10% fetal bovine serum, 1% penicillin-streptomycin), yielding working solutions of various concentrations. The plate, after the addition of compounds, was placed in a 5% carbon dioxide incubator, and incubated at 37° C. for 24 hours (final DMSO concentration was 0.1%). The plate was then removed from the incubator, and the cells were washed twice with precooled PBS (Gibco, 14190250), followed by addition of 80 μL RIPA (CST, 9806S) lysis buffer (containing protease inhibitor (Invitrogen™, AM2696)) to each well. The adherent cells were scraped off with a cell scraper, and the cell lysate was transferred to a 1.5 mL centrifuge tube followed with a 30-minute incubation on ice. The lysate was then clarified with centrifugation at 12000 rpm for 10 min at 4° C. The supernatant was transferred into a new 1.5 mL centrifuge tube, and protein concentration was measured with BCA protein detection kit (Thermo Fisher, 23225). G12D protein level was assessed by western blot. A mixture of cell lysate (40 μL) and loading buffer (10 μL, 5×SDS (Beyotime, P0015L)) was denatured in a water-bath at 95° C. for 10 min. The denatured protein sample, at 30 μg/well, was loaded into a corresponding well of a 4-20% Bis-Tris gel (Kingsley, M00656). Protein samples were initially electrophoresed at 80 V for 30 minutes, followed by 120 V for 40 minutes, until the bromophenol blue strip ran to an appropriate position. After electrophoresis, iBlot2 (Life Technologies, IB21001) was used to transfer the separated samples onto PVDF film. The PVDF membrane was washed with double-distilled water and then blocked in TBST (Thermo Scientific, 28360) buffer containing 5% non-fat milk, for 2 hours. Blocked membrane was rinsed with tris-buffered saline tween-2 (Thermo Scientific, 28360, TBST) three times, 10 minutes each. Membrane was then incubated with 1:1000 diluted RAS Gi2D primary antibody (CST, cat #14429S) overnight at 4° C. Membrane was rinsed in a way described previously followed by 1 hour incubation of secondary antibody at room temperature. After washing the film for three times with TBST, ECL color developing solution was applied, and image was captured with Biorad Chemi Doc gel imager. The band gray value was quantified (Image Lab), and protein degradation level was calculated according to the following formulas:
Level of RAS G12D protein expression=(RAS G12D−compound/β-Actin)−compound/(RAS G12D−DMSO/β-Actin−DMSO)
Level of degradation (%)=(1−Rate of RAS G12D protein expression)×100
Symbols of −, +, ++, +++, ++++, +++++ indicate that the degradation level of Ras protein induced by test compounds was 10% or less, 10 to 30%, 30 to 60%, 60 to 70%, 70 to 75%, and greater than 75%, respectively. “NT” indicates not tested.
“NT” indicates not tested.

[3] = system: PSN-1 cells (G12R); assay: Cell proliferation study (Cell Titer Glo, 72 hours), PSN-1; type: cell-based; details: Homo sapiens, PSN1
Method: as §1, §2, §3

[4] = system: AsPc-1 cells (G12D); assay: Cell proliferation study (Cell Titer Glo, 72 hours), AsPc-1; type: cell-based; details: Homo sapiens, ASPC1
Method: as §1, §2, §3

[5] = system: MKN1 cells (WT); assay: Cell proliferation study (Cell Titer Glo, 72 hours), MKN1; type: cell-based; details: Homo sapiens, MKN-1
Method: as §1, §2, §3

[6] = system: NCI-H727 cells (G12V); assay: Cell proliferation study (Cell Titer Glo, 72 hours), NCI-H727; type: cell-based; details: Homo sapiens
Method: as §1, §2, §3

[7] = system: NCI-H358 cells (G12C); assay: Cell proliferation study (Cell Titer Glo, 72 hours), NCI-H358; type: cell-based; details: Homo sapiens
Method: as §1, §2, §3

[8] = Pharmacokinetics in male ICR mice; type: in vivo; details: mouse, plasma, IV (3 mg/kg)
[9] = ASPC1, 24 h, Aspc-1 cells, 24 hours, read-out: Rate of protein degradation (%)

| SMILES | IC50 [1] [nM] | percent protein degradation at 0.01 µM ([2]; ASPC1, 24 h, 0.010 μM compound, Aspc-1 cells, 24 hours, read-out: Rate of protein degradation (%)) [%] | percent protein degradation at 0.1 µM ([2]; ASPC1, 24 h, 0.1 μM compound, Aspc-1 cells, 24 hours, read-out: Rate of protein degradation (%)) [%] | DC50 [2] [nM] | IC50 [3] [nM] | IC50 [4] [nM] | IC50 [5] [nM] | IC50 [6] [nM] | percent protein degradation at 0.001 µM ([2]; ASPC1, 24 h, 1 nM compound, Aspc-1 cells, 24 hours, read-out: Rate of protein degradation (%)) [%] | percent protein degradation at 0.005 µM [2, 9] [%] | percent protein degradation at 0.05 µM [2, 9] [%] | Dmax ([2]; G12D in Aspc-1 cells) [%] | IC50 [7] [nM] | AUC(0-t) [8] [ng·h/mL] | half-life [8] [h] | DC50 ranking among test compounds ([2]; G12D in Aspc-1 cells) |
| --- | --- | --- | --- | --- | --- | --- | --- | --- | --- | --- | --- | --- | --- | --- | --- | --- |
| CCc1c(F)ccc2cc(O)cc(-c3ncc4c(N5CCC[C@@](C)(O)C5)nc(OCC5(CN6CCC(C(=O)N7CCC8(CC7)CC(N7CCC(c9ccc%10c(C%11CCC(=O)NC%11=O)nn(C)c%10c9)CC7)C8)CC6)CC5)nc4c3F)c12 (stereo partly shown) [Compound 85] | 242 | 60 to 70 | 60 to 70 | 1 to 10 | 488 | 488 | 405 | 2.46 | – | – | – | – | – | – | – | – |
| CCc1c(F)ccc2cc(O)cc(-c3ncc4c(N5CCC[C@@](C)(O)C5)nc(OCC5(CN6CCC7(CC6)CC(N6CCC(c8ccc9c(c8)CN(C8CCC(=O)NC8=O)C9=O)CC6)C7)CC5)nc4c3F)c12 (stereo partly shown) [Compound 130] | 0.219 | – | – | < 1 | – | 12.4 | – | 4.45 | 70 to 75 | 70 to 75 | 30 to 60 | 73 | 64.8 | – | – | – |
| CCc1c(F)ccc2cc(O)cc(-c3ncc4c(N5CCC[C@@](C)(O)C5)nc(OCC5(CN6CCC7(CC6)CC(N6CCC(c8ccc9c%10c(cccc8%10)C(=O)N9C8CCC(=O)NC8=O)CC6)C7)CC5)nc4c3F)c12 (stereo partly shown) [Compound 137] | – | – | – | < 1 | – | 65.6 | – | 0.46 | – | – | – | 62 | 438 | 1280 | 7.97 | – |
| CCc1c(F)ccc2cc(O)cc(-c3ncc4c(N5CCC[C@]6(CCO6)C5)nc(OCC5(CN6CCC7(CC6)CC(N6CCC(c8ccc9c%10c(cccc8%10)C(=O)N9C8CCC(=O)NC8=O)CC6)C7)CC5)nc4c3F)c12 (stereo partly shown) [Compound 179a] | 0.123 | – | – | < 1 | – | 57.8 | – | 18.5 | – | > 75 | > 75 | 70 | 126 | – | – | lowest DC50 value |
| C[C@@]1(O)CCCN(c2nc(OCC3(CN4CCC5(CC4)CC(N4CCC(c6ccc7c8c(cccc68)C(=O)N7C6CCC(=O)NC6=O)CC4)C5)CC3)nc3c(F)c(-c4cc(N)cc(Cl)c4C(F)(F)F)ncc23)C1 (stereo partly shown) [Compound 200] | 0.991 | – | – | – | – | > 1000 | – | 45.8 | – | 70 to 75 | > 75 | – | > 1000 | – | – | – |
| CCc1c(F)ccc2cc(O)cc(-c3ncc4c(N5CCC[C@]6(CCO6)C5)nc(OCC5(CN6CCC7(CC6)CC(N6CCC(c8ccc9c(C%10CCC(=O)NC%10=O)nn(C)c9c8)CC6)C7)CC5)nc4c3F)c12 (stereo partly shown) [Compound 201] | 0.256 | – | – | < 1 | – | 4.98 | – | 2.09 | – | > 75 | > 75 | 80 | 9.92 | – | – | – |
| CCc1c(F)ccc2cc(O)cc(-c3ncc4c(N5CCC[C@]6(CCO6)C5)nc(OCC5(CN6CCC7(CC6)CC(N6CCC(c8cc9c(cc8F)c(C8CCC(=O)NC8=O)nn9C)CC6)C7)CC5)nc4c3F)c12 (stereo partly shown) [Compound 205] | 0.289 | – | – | < 1 | – | 2.32 | – | 0.309 | – | 60 to 70 | > 75 | 78 | 6.24 | – | – | – |
